The test system of the assay is Escherichia Coli (strain O157). Description: Sepsis model induced in mice by Escherichia Coli (strain O157). The format is in vivo. To be noted: BALB/c mice, E. coli O157 2.5×10^8 cells i.p.; single intravenous injection 25 mg/kg (antibiotic base) 4 h post infection; n=10. As to the method:
Antibacterial efficacy of antibiotics in hybrid polymer-lipid nanoparticles was evaluated “in vivo” in a sepsis model, induced in mice (BALB/C line) by Escherichia Coli (strain O157). E. Coli O157 strain was chosen as a model infection as one of the most common pathogens that cause nosocomial infections.
Female BALB/c mice 6-8 weeks old were infected intraperitoneally with E. coli (strain O157) at a dose of 2.5×10^8 cells off E. coli per mouse.
The infected animals were randomized in groups (n=10) and received one of the following formulations: […]
Streptomycin formulations: 1) Saline; 2) Streptomycin solution in saline, 5 mg/ml 3) Streptomycin in hybrid polymer-lipid nanoparticles (Example 30 in Table 1), 5 mg/ml.
Gentamycin formulations: 1) Saline 2) Gentamycin solution in saline, 2.5 mg/ml; 3) Gentamycin in hybrid polymer-lipid nanoparticles (Example 24 in Table 1), 2.5 mg/ml.
The formulations were injected intraperitoneally (Streptomycin) or intravenously (Gentamycin) in the doses of 1×25 mg/kg (calculated by antibiotic base) 4 h post infection.

The values below come from patent US20080102127A1, “HYBRID LIPID-POLYMER NANOPARTICULATE DELIVERY COMPOSITION” (priority 2006, published 2008).

Turning to “Gentamycin [Gentamycin solution in saline]”, the “survival of the animals at Day 10” value came out at 20%.
